Test results reported in US12139481B2, “Compositions comprising macrocycle derivatives incorporating bridged macrocycles and methods of producing and using same” (Southwestern Oklahoma State University, priority 2015, dated 2024).
Like-named read-outs stand apart in the source and are kept apart here.

Experiments:
Assay type in all cases: cell-based
[1] = test system: Cryptococcus neoformans ATCC 90113; test: Antimicrobial microdilution assay against Cryptococcus neoformans (modified CLSI/NCCLS, optical density); conditions: for X more potent than Amphotericin B: C. neoformans, ratio of molar IC50 to Amphotericin B; for C. neoformans IC50 / IC50: in vitro, C. neoformans ATCC 90113; for IC50: read-out: C. neoformans IC50 (mol/L)
Procedure, shortened: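 Broth microdilution (modified CLSI) in RPMI pH 6.0, samples serially diluted in 20% DMSO/saline and tested in duplicate, growth followed by OD630 before and after incubation. MFC is the lowest concentration giving no growth when 5 μL from clear wells is plated on agar.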

[2] = test system: Plasmodium falciparum D6 clone (Sierra Leon, chloroquine-sensitive); test: In vitro antimalarial assay, chloroquine-sensitive D6 clone; conditions: D6 clone; for IC50: converted with molecular weight, read-out: P. falciparum D6 IC50; for X more potent than chloroquine: molar IC50 ratio versus chloroquine
Procedure, shortened: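 Parasites grown in type A human RBCs; assay run on infected cell suspension at 2% parasitemia and 2% hematocrit, in duplicate at several concentrations. IC50 taken from dose curves, per the Makler method, with DMSO as vehicle; Vero cytotoxicity run in parallel to derive a selectivity index.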

[3] = test system: S. mansoni newly transformed schistosomula (NTS); test: In vitro testing on Schistosoma mansoni newly transformed schistosomula (NTS), viability score; conditions: NTS S. mansoni, 33 μM, 72 h
Procedure, shortened: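 Mechanically transformed S. mansoni (Liberian strain) NTS, cultured overnight, exposed at 100 per well to compound (from 10 mM DMSO stock; ≤1% DMSO controls) at 37 °C, 5% CO2 for 72 h. Viability scored microscopically from 3 (normal activity, intact tegument) to 0 (dead, granulated).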

Structure (SMILES) | X more potent than Amphotericin B [1] | C. neoformans IC50 [1] [µg/mL] | IC50 [1] [µM] | P. falciparum D6 IC50 [2] [µg/mL] | IC50 [2] [nM] | X more potent than chloroquine [2] | IC50 ([1]; HCl salt) [µM] | Effect at 72 h (%) [3] [%]
c1ccc(CN2CCN3CCCN(CC2)CCN(Cc2ccccc2)CC3)cc1 [AW009, Bn2PBCyclen] | 0.01 | 6.740 | 17.2 | 1.0770 | 2740 | 0.01 |  | 
[Cl][Mn-2]([Cl])([Cl])[Cl].[Mn+2].c1ccc(CN2CCCN3CCCN(CCCN(Cc4ccccc4)CC3)CC2)cc1 [BME08, [Mn(Bn2PBCyclam)][MnCl4]] | 0.13 | 1.203 | 1.79 | 0.0967 | 144 | 0.25 |  | 
CC(=O)[O-].F[P-](F)(F)(F)(F)F.[Ni+2].c1ccc(CN2CCCN3CCCN(CCCN(Cc4ccccc4)CC3)CC2)cc1 [DJD22, [Ni(Bn2PBCyclam)(OAc)]PF6] | 0.03 | 5.240 | 7.67 | 0.7074 | 1040 | 0.04 |  | 
c1cc(CN2CCCN3CCCN(CCCNCC3)CC2)ccc1CN1CCCN2CCCN(CCCNCC2)CC1 [SLK10, p-H2PBCyclams] | 0.01 | 15.010 | 25.8 | 0.8657 | 1480 | 0.02 |  | 
CN1CCCN2CCN(CCCN(Cc3cccc(CN4CCCN5CCN(C)CCCN(CC5)CC4)c3)CC2)CC1.Cl.Cl.Cl.Cl.Cl.Cl.Cl.Cl [TJS04, m-CB-cyclams HCl salt] | 0.61 | 0.380 |  | 0.7450 | 852 | 0.04 | 0.39 | 24.32
